“And” between values parts separate entries of the source, which are not always exact repeats. Equal entries are not always repeated.
Tests used:
[1] = system: C57BL/6 mice; experiment: Bleomycin‐induced lung fibrosis, therapeutic model 1 (compounds from a week after bleomycin); format: in vivo
Experimental: To examine therapeutic efficacy of DWN12088, all experiments were conducted following the international guidelines on the ethical use of experimental animals and approved by the Institutional Animal Care and Use Committee of Daewoong Pharmaceutical (IACUC‐21‐014). C57BL/6 mice (7–8‐week‐old, male, obtained from Orient Bio) were anesthetized with Zoletil and injected intratracheally with 100 μl bleomycin (2 units/kg) (Merck, B8416) to induce lung fibrosis. A group of disease‐free mice (“untreated”) were injected with PBS instead of bleomycin. After a week, mice treated with bleomycin were randomized to (i) vehicle (saline), (ii) HF 0.05 mg/kg, (iii) HF 0.1 mg/kg, and (iv) DWN12088 10 mg/kg groups (n = 5 for each group) according to their body weight. The drugs were orally administered once daily for 2 weeks, and then the outcome was analyzed. For the experiments testing the effect of the compounds 2 weeks after bleomycin challenge, the experiment was approved by IACUC of Daewoong Pharmaceutical (IACUC‐22‐009). The experimental procedures were performed following the methods described previously, with the exception that the compounds were administered 2 weeks after bleomycin challenge. The experiments were conducted as non‐blind tests.
Mice were anesthetized with Zoletil for 10 min, and a portable mouse pulse oximeter (Veterinary Pulse Oximeter, Berry Electronic) was placed on each mouse's body. The measurements were continued to allow the recording of 3 min of a stable signal.
The collagen contents of lung tissues were measured using Sircol™ soluble collagen assay (Biocolor Ltd., S1000) following the manufacturer's instructions. Briefly, the right lung lobes were homogenized, and collagen was solubilized in 0.5 M acetic acid. Tissue extracts were incubated with Sirius red dye, and the absorbance was determined at 540 nm using a spectrophotometer. The amount of collagen was expressed relative to the wet weight of the tissues.
The lung tissues were fixed in paraformaldehyde and embedded in paraffin. The paraffin‐embedded blocks were sectioned at 4 μm and then mounted onto glass slides. After deparaffinization and rehydration, the slides were fixed with Bouin's solution (Sigma Aldrich, HT10132‐1L) for 1 h. Then, the slides were incubated with hematoxylin (Sigma Aldrich, MHS16‐500ML), Biebrich Scarlet (Sigma Aldrich, B‐6008) and acid fuchsin (Sigma Aldrich, A‐3908), phosphomolybdic (DAEJUNG, 6531‐4105) and phosphotungstic acid (DAEJUNG, 6539‐4105), aniline blue (DAEJUNG, 1087‐4125), and then 1% (v/v) acetic acid (DUKSAN, UN2789). After dehydration, the slides were mounted onto cover slips and scanned using slide scanner (3D HISTECH, Pannoramic MIDI). Fibrotic area of the images was quantified by using Image J plugin, color deconvolution 2.

[2] = system: WI‐26 VA4 cells; experiment: Immunoblot of cellular protein levels with different proline content; format: cell-based, human; conditions: Fig 2A
Experimental: (§1) The levels of proteins were determined by immunoblot assay. […] The lowest concentration at which protein levels started to decrease was normalized by IC50 values for collagen level and used as the y‐axis value. […] The slope and R^2 value were calculated using GraphPad Prism 7.0. […] The activation of the TGF‐β pathway was determined by monitoring the phosphorylation of SMAD2. Immunoblot images are representative of three biologically independent experiments. • The band intensities of the immunoblot images in (C) were quantified using ImageJ (n = 3; One‐way ANOVA; *P < 0.05, **P < 0.01, ***P < 0.001; mean ± SEM). Source data are available online for this figure.

[3] = system: phosphorylation of SMAD2; experiment: Phosphorylation of SMAD2 (TGF‐β pathway), immunoblot; format: cell-based, human; conditions: 15 h; for Relative ratio of p-SMAD2/SMAD2, average / Relative ratio of p-SMAD2/SMAD2: + TGF-β; for Relative ratio of p-SMAD2/SMAD2: single experiments
Experimental: as §1

[4] = system: WI‐26 VA4 cells stably expressing EV (empty vector); experiment: Collagen ELISA in cells stably expressing EV; conditions: for Collagen level, average: average of 4 experiments; for Collagen level, single replicates: replicates of Experiments #1-#4

## O[C@H]1CCCN[C@@H]1CCCn1cnc2c(Cl)c(Cl)ccc21 [DWN12088]
[1]; 10 mg/kg oral once a day, 2 weeks, versus nintedanib 60 mg/kg and pirfenidone 200 mg/kg (Fig EV4D–F)
  efficacy (SpO2, BALF total cell count, collagen contents): comparable with nintedanib and pirfenidone
[1]; BLM +, 10 mg/kg
  BALF total cell count, average: 8.46 x105 cells
  BALF total cell count, single animal: 9.8 x105 cells and 8.9 x105 cells and 6.4 x105 cells and 7.5 x105 cells and 9.7 x105 cells
  Collagen contents, average: 213.8 μg/right lung
  Collagen contents, single animal: 175 μg/right lung and 275 μg/right lung and 198 μg/right lung and 165 μg/right lung and 256 μg/right lung
  Fibrotic area, average: 173.8 % of control
  Fibrotic area, single animal: 230.8 % of control and 181.2 % of control and 123.5 % of control and 151.5 % of control and 182.0 % of control
  SpO2, average: 81.0%
  SpO2, single animal: 87% and 81% and 88% and 72% and 77%
[1]; lung tissue (Fig 1H and I)
  collagen deposition, Masson's trichrome staining: decreased collagen deposition in the interstitial spaces
[1]; model 1, drug administration from day 7
  fibrotic properties: significantly reduced fibrotic properties
[1]; mouse, in vivo
  in vivo effective dose of DWN12088 relative to that of HF: about 100 times
[2]
  effective dose for decreasing general proteins (SMAD2, AIMP2, AMPKα, cyclin D1) compared with COL1A1: about 10 times
[3]; 0.2 μM
  Relative ratio of p-SMAD2/SMAD2, average: 0.76
  Relative ratio of p-SMAD2/SMAD2: 0.61 and 0.94 and 0.72
[3]; 0.6 μM
  Relative ratio of p-SMAD2/SMAD2, average: 0.75
  Relative ratio of p-SMAD2/SMAD2: 0.65 and 0.71 and 0.87
[3]; 2 μM
  Relative ratio of p-SMAD2/SMAD2, average: 0.70
  Relative ratio of p-SMAD2/SMAD2: 0.48 and 0.69 and 0.92
[3]; 6 μM
  Relative ratio of p-SMAD2/SMAD2, average: 0.78
  Relative ratio of p-SMAD2/SMAD2: 0.66 and 0.77 and 0.91
[3]; 20 μM
  Relative ratio of p-SMAD2/SMAD2, average: 0.41
[3]; 60 μM
  Relative ratio of p-SMAD2/SMAD2, average: 0.16
[3]; TGF‐β 2 ng/ml
  SMAD2 phosphorylation: reduced SMAD2 phosphorylation
[4]; EV cells
  CC50/collagen IC50: 12.55
[4]; EV cells (reference)
  Relative (CC50)/(collagen IC50): 1.00
[4]; Homo sapiens, WI26VA4, read-out: IC50, collagen level
  IC50: 1910 nM
[4]; WI-26 VA4 EV, 30 nM
  Collagen level, average: 106.29 % of control
  Collagen level, single replicates: 103.80 % of control and 93.68 % of control and 118.18 % of control and 101.32 % of control and 113.71 % of control and 100.49 % of control and 110.94 % of control and 125.36 % of control and 99.68 % of control and 91.65 % of control and 118.14 % of control and 98.48 % of control
[4]; WI-26 VA4 EV, 100 nM
  Collagen level, average: 97.93 % of control
  Collagen level, single replicates: 104.52 % of control and 100.73 % of control and 92.07 % of control and 94.49 % of control and 97.76 % of control and 98.74 % of control and 108.25 % of control and 102.28 % of control and 98.65 % of control and 91.35 % of control and 85.38 % of control and 100.91 % of control
[4]; WI-26 VA4 EV, 300 nM
  Collagen level, average: 81.48 % of control
  Collagen level, single replicates: 91.09 % of control and 79.16 % of control and 74.69 % of control and 82.43 % of control and 80.75 % of control and 70.25 % of control and 88.16 % of control and 89.14 % of control and 75.64 % of control and 84.11 % of control and 76.95 % of control and 85.36 % of control
[4]; WI-26 VA4 EV, 1000 nM
  Collagen level, average: 68.39 % of control
  Collagen level, single replicates: 76.13 % of control and 68.91 % of control and 67.97 % of control and 76.57 % of control and 67.70 % of control and 49.07 % of control and 76.54 % of control and 74.06 % of control and 46.15 % of control and 70.23 % of control and 69.64 % of control and 77.72 % of control
[4]; WI-26 VA4 EV, 3000 nM
  Collagen level, average: 47.79 % of control
  Collagen level, single replicates: 46.50 % of control and 50.68 % of control and 52.48 % of control and 46.12 % of control and 48.12 % of control and 44.47 % of control and 46.33 % of control and 45.40 % of control and 47.63 % of control and 51.25 % of control and 49.30 % of control and 45.24 % of control
[4]; WI-26 VA4 EV, 10000 nM
  Collagen level, average: 13.92 % of control
  Collagen level, single replicates: 13.28 % of control and 17.27 % of control and 16.23 % of control and 13.89 % of control and 12.05 % of control and 10.58 % of control and 12.31 % of control and 11.80 % of control and 11.03 % of control and 17.85 % of control and 17.12 % of control and 13.65 % of control
[4]; WI-26 VA4 EV, 30000 nM
  Collagen level, average: 4.05 % of control
  Collagen level, single replicates: 4.24 % of control and 4.41 % of control and 4.74 % of control and 6.13 % of control and 2.65 % of control and 2.97 % of control and 3.41 % of control and 2.56 % of control and 2.84 % of control and 4.90 % of control and 3.97 % of control and 5.81 % of control
[4]; WI-26 VA4 EV, 100000 nM
  Collagen level, average: 3.50 % of control
  Collagen level, single replicates: 2.77 % of control and 4.80 % of control and 4.00 % of control and 3.82 % of control and 3.27 % of control and 2.48 % of control and 2.45 % of control and 2.57 % of control and 2.65 % of control and 4.71 % of control and 3.89 % of control and 4.63 % of control
[4]; WI-26 VA4 EV, 300000 nM
  Collagen level, average: 2.44 % of control
  Collagen level, single replicates: 2.49 % of control and 2.31 % of control and 2.89 % of control and 2.54 % of control
[4]; WI-26 VA4 EV, four-parameter fit
  HillSlope, collagen level: -0.8641
[4]; WI-26 VA4 EV, log of concentration in nM, four-parameter fit
  LogIC50, collagen level: 3.281

Source: publication PMC10331583, “Control of fibrosis with enhanced safety via asymmetric inhibition of prolyl‐tRNA synthetase 1” (EMBO Molecular Medicine, 2023)
